Consider eight molecules from ChEMBL document CHEMBL1201862, “PubChem BioAssay data set” (2004).

Test systems include BT-549; HL-60; HOP-62; HOP-92; Hs-578T; M14; MDA-MB-231; MDA-N; OVCAR-5; RPMI-8226; RXF 393; SF-295; SN12C; T47D; DMS-114; DMS-273; EKVX; OVCAR-4; SF-268; UACC-257.
Assay in all cases: NCI anticancer screen, dose series, 48 h

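Cultured in 96-well plates, cells were exposed to test compound for 48 hours across five concentrations. GI50: concentration for 50% inhibition of growth.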 The source made the active and inactive calls. Rule as the data show it: active = GI50 up to about 1.1 µM and inactive = higher.

On to `O=C1c2ccccc2C(=O)N1CC(CN1C(=O)c2ccccc2C1=O)(C(=O)OCc1ccccc1)C(=O)OCc1ccccc1`, for which the GI50 in the experiment on BT-549, with HL-60, in the experiment on HOP-62, in the experiment on HOP-92, in the experiment with Hs-578T and in the experiment with M14 was > 100 µM (inactive) throughout. In addition, the GI50 in the experiment with MDA-MB-231 is > 100 µM (inactive); in the experiment with MDA-N it was > 100 µM (inactive); in the experiment on OVCAR-5 it was > 100 µM (inactive); in the experiment with RPMI-8226, > 100 µM (inactive); in the experiment on RXF 393, 14.4 µM (inactive); in the experiment on SF-295 it was > 100 µM (inactive). Also, the GI50 in the experiment on SN12C and with T47D was > 100 µM (inactive) each time.

For the molecule `COc1cc(/C=C/C(=O)O)ccc1C(=O)O/C=C/c1ccccc1`, the GI50 in the experiment with DMS-114 was > 100 µM (inactive); in the experiment on DMS-273, > 100 µM (inactive); with EKVX, > 100 µM (inactive); with HL-60, 45.3 µM (inactive); in the experiment with HOP-62 it was > 100 µM (inactive); with HOP-92 it was > 100 µM (inactive). In addition, the GI50 in the experiment with OVCAR-4, with OVCAR-5, in the experiment on RPMI-8226, in the experiment on RXF 393, with SF-268 and in the experiment on SF-295 was > 100 µM (inactive) each time. The GI50 with SN12C and in the experiment with UACC-257 was > 100 µM (inactive) each time.

As for `CCNC(=O)N(CC)CN(CC)C(=O)NCC`, the GI50 with DMS-114, with EKVX, in the experiment on HL-60, in the experiment on HOP-62, in the experiment on M14 and in the experiment on OVCAR-5 was > 100 µM (inactive) throughout. The GI50 in the experiment with RPMI-8226, in the experiment on SF-268, with SF-295, with SN12C and in the experiment on UACC-257 was > 100 µM (inactive) in each case.

Consider `O=C1C2=C(C3=NCCc4c[nH]c1c43)C1(C=C(Br)C(O)C(Br)=C1)CCN2` (centres undefined), for which the GI50 in the experiment on DMS-114 is 0.202 µM (active); with DMS-273, 1.03 µM (active); in the experiment with EKVX it was 1.07 µM (active); in the experiment with HL-60 it was 0.558 µM (active); in the experiment with HOP-62, 17.9 µM (inactive); in the experiment on HOP-92, 2.92 µM (inactive). Besides, the GI50 with OVCAR-4 was 1.47 µM (inactive); with OVCAR-5, 2.65 µM (inactive); with RPMI-8226, 1.9 µM (inactive); in the experiment on RXF 393, 2.56 µM (inactive); in the experiment with SF-268, 0.966 µM (active); in the experiment with SF-295 it was 2.48 µM (inactive). The GI50 in the experiment on SN12C was 1.29 µM (inactive); with UACC-257, 0.614 µM (active).

`CC(=O)OC/C=C\Cn1nc(Br)c(=O)[nH]c1=O`: the GI50 in the experiment on BT-549 was 9.77 µM (inactive); with EKVX, 17.4 µM (inactive); with HL-60, 4.69 µM (inactive); with HOP-62, 16.3 µM (inactive); in the experiment on HOP-92, 13 µM (inactive); in the experiment with Hs-578T it was 21.5 µM (inactive). Besides, the GI50 was 14.9 µM (inactive) in the experiment with M14; 18 µM (inactive) in the experiment with MDA-MB-231; 15.6 µM (inactive) with MDA-N; 17.9 µM (inactive) in the experiment with OVCAR-5; 25.9 µM (inactive) with RPMI-8226; 10.6 µM (inactive) in the experiment on RXF 393. Further, the GI50 in the experiment on SF-268 is 14.9 µM (inactive); with SN12C, 23.2 µM (inactive); with T47D, 13.9 µM (inactive); in the experiment on UACC-257 it was 15.5 µM (inactive).

As to `COC(=O)NCCc1n[nH]c2c1C(=O)C=C(N1CCOCC1)C2=O`, the GI50 in the experiment with BT-549, in the experiment with EKVX, in the experiment with HL-60, in the experiment with HOP-62, in the experiment on HOP-92 and with Hs-578T was > 100 µM (inactive) throughout. Besides, the GI50 with M14, with MDA-MB-231, with MDA-N, in the experiment with OVCAR-4, in the experiment with OVCAR-5 and with RPMI-8226 was > 100 µM (inactive) each time. Also, the GI50 with RXF 393, with SF-268, in the experiment with SF-295, with SN12C, with T47D and in the experiment with UACC-257 was > 100 µM (inactive) throughout.

Consider `COc1ccc2c(c1)CCCc1cn[nH]c1-2`, for which the GI50 in the experiment on DMS-114 is > 100 µM (inactive); in the experiment on DMS-273, > 100 µM (inactive); in the experiment on EKVX it was > 74.6 µM (inactive); in the experiment on HL-60 it was > 100 µM (inactive); in the experiment on HOP-62, > 100 µM (inactive); in the experiment on HOP-92, > 100 µM (inactive). Also, the GI50 in the experiment with OVCAR-4 is > 100 µM (inactive); in the experiment with OVCAR-5 it was > 100 µM (inactive); in the experiment with RXF 393, > 89.1 µM (inactive); with SF-268 it was > 100 µM (inactive); in the experiment on SF-295, > 100 µM (inactive); with SN12C it was > 100 µM (inactive). The GI50 in the experiment with UACC-257 is > 100 µM (inactive).

For the molecule `ICC1CCCO1` (centres undefined), the GI50 with DMS-114, in the experiment with DMS-273, with EKVX, with HL-60, in the experiment with HOP-92 and in the experiment on M14 was > 100 µM (inactive) in each case. The GI50 in the experiment with OVCAR-4, with OVCAR-5, in the experiment with RPMI-8226, in the experiment on RXF 393, in the experiment on SF-268 and in the experiment with SF-295 was > 100 µM (inactive) each time. For the same molecule, the GI50 with SN12C and in the experiment on UACC-257 was > 100 µM (inactive) in each case.
